Data published in ChEMBL document CHEMBL1201862, “PubChem BioAssay data set” (2004).
The source made the active and inactive calls.

How the values were obtained:
[1] = potency of ADAM10 substrate cleavage blockers – biochemical, QFRET, dose response (AID 743254);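 also: ADAM10 enzyme with the DM2 quenched FRET peptide as substrate; EDANS fluorescence gain as the protease cuts the substrate; inhibitor potency against ADAM10 proteolytic activity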
[2] = target: Disintegrin and metalloproteinase domain-containing protein 17 (Homo sapiens, UniProt P78536); assay: inhibition of ADAM17 substrate cleavage – biochemical, quenched FRET substrate, counter-screen for ADAM10 exosite inhibitor project, dose response (AID 743253)
Sequence of Disintegrin and metalloproteinase domain-containing protein 17 (P78536 whole entry, the tested form may be a part): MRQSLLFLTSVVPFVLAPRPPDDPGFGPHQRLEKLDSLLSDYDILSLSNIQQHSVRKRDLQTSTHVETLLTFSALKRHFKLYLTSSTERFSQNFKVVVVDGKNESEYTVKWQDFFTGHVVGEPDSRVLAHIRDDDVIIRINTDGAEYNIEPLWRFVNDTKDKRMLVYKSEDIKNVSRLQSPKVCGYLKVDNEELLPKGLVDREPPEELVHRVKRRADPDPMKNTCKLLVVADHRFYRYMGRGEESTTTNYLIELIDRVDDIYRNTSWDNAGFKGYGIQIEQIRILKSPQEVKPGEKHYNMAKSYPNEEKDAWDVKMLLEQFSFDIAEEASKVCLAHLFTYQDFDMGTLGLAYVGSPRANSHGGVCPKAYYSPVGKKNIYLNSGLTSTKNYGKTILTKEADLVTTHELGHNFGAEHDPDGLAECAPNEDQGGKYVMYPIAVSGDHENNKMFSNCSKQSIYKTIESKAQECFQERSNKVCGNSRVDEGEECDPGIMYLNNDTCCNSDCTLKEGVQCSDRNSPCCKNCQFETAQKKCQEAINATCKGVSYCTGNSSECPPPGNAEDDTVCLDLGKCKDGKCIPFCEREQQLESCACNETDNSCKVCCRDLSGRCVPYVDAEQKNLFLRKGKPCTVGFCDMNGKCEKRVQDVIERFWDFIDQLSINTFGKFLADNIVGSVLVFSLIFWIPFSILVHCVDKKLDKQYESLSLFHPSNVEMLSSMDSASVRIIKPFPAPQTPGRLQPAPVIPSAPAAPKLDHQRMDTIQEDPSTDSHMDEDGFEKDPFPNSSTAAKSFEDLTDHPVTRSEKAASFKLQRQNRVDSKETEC

[3] = target: T1, Methionyl-tRNA synthetase, putative (Trypanosoma brucei brucei, UniProt Q38C91); assay type: functional, Trypanosoma brucei brucei strain 927/4 GUTat10.1
T1 sequence (Q38C91 whole entry): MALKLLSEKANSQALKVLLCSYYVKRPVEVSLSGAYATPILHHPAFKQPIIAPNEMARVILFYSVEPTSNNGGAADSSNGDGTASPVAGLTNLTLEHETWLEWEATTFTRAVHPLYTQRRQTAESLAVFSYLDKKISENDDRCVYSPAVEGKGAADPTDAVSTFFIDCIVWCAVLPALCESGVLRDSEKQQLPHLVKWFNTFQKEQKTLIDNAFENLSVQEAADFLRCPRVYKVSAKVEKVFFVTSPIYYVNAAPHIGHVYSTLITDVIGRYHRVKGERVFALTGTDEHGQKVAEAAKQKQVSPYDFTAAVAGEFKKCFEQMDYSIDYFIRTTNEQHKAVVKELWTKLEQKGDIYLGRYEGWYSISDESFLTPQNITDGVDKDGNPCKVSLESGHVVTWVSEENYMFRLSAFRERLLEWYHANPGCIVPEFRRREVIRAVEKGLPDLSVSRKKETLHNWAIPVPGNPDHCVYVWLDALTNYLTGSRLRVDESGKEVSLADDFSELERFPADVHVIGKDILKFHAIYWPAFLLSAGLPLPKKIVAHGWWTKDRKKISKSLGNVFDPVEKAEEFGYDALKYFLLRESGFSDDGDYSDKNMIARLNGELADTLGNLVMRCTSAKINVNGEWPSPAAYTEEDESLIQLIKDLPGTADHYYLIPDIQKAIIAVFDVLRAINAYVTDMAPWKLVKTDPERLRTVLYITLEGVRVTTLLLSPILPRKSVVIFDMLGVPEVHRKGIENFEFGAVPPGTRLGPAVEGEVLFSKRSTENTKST

[4] = Counterscreen for inhibitors of Trypanosoma brucei methionyl tRNA synthetase (MetRS): Luminescence-based cell-based high throughput dose response assay to identify compounds that are cytotoxic to Jurkat human T lymphocyte cells.; assay type: functional
[5] = target: T1, Methionyl-tRNA synthetase, putative; assay type: functional, Trypanosoma brucei brucei strain 927/4 GUTat10.1; remark: listed apart in the source
[6] = Late stage counterscreen for inhibitors of Trypanosoma brucei methionyl tRNA synthetase (MetRS): Luminescence-based cell-based high throughput dose response assay to identify compounds that are cytotoxic to Jurkat human T lymphocyte cells.; assay type: functional
[7] = target: Oxysterols receptor LXR-beta (Homo sapiens, UniProt P55055); assay type: functional, cell-based;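 also: agonist activity at LXR measured by a cell-based luminescence readout across a dose range, run as a counterscreen for daf-12 agonists; HEK293 cells with Gal4-LXR fusion and GAL4-driven luciferase reporter; potency for activation of Gal4-LXR reporter so compounds are agonists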
Sequence of Oxysterols receptor LXR-beta (P55055 whole entry, the tested form may be a part): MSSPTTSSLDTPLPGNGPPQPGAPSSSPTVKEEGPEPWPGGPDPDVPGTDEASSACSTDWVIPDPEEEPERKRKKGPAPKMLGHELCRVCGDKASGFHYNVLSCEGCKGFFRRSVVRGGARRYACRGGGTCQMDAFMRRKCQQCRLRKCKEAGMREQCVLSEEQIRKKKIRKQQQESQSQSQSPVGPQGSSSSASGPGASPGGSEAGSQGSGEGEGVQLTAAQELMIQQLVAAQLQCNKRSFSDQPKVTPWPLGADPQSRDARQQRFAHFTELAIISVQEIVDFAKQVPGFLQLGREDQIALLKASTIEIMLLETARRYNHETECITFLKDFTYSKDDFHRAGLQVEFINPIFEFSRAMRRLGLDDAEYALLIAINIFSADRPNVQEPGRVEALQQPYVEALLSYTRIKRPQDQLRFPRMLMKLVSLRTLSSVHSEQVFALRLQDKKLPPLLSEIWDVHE

[8] = system: Jurkat; assay: blockers of NF-kB activation in T cells – Jurkat, luciferase reporter, luminescence, B- and T-cell, dose response (AID 489004); assay type: functional, cell-based; conditions: Homo sapiens;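 also: NF-kB luciferase reporter Jurkat cells stimulated with PMA plus ionomycin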
[9] = HEK-293T viability loss, compound-treated – cell-based, uHTS hits, cytotoxicity control for B/T-cell NF-kB inhibitor project, dose response (AID 489019); assay type: functional;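 also: IC50 reflects cytotoxicity as loss of cell viability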
[10] = target: Cytochrome P450 2C19 (Homo sapiens, UniProt P33261); assay: Cytochrome panel assay with activity outcomes. Panel member name: p450-cyp2c19 Compounds with AC50 equal or less than 10 uM are considered active; assay type: functional; conditions: read-out: AC50
Sequence of Cytochrome P450 2C19 (P33261 whole entry): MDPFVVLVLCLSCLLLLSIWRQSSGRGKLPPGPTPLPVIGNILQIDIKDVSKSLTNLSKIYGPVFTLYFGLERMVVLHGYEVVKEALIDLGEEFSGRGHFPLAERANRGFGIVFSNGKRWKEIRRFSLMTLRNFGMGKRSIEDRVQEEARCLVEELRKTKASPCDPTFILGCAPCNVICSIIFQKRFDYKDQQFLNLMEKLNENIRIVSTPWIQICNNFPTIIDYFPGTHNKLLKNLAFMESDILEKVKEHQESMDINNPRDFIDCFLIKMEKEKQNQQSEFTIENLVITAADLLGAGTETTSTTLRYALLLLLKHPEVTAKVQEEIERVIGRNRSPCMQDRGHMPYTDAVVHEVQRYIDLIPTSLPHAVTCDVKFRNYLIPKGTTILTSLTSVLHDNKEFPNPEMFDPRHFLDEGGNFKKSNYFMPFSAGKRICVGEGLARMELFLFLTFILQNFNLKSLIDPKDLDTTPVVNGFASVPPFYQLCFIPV

[11] = system: INS1; assay: INS-1E survival protection against cytokine death – cell-based, luminescence, retest, dose response (AID 449756); assay type: functional; conditions: Rattus norvegicus;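 also: cell death triggered by IL-1 beta plus TNF-alpha plus IFN-gamma mixture; protective hits raise ATP signal compared with cytokine alone wells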
[12] = blockers of HIV-1 envelope-mediated cell-cell fusion – cherry-pick, dose response (AID 652057); assay type: functional, cell-based
[13] = target: Galanin receptor type 3 (Homo sapiens, UniProt O60755); assay: Fluorescence-based cell-based primary high throughput dose response assay to identify antagonists of the Galanin Receptor 3 (GalR3).; assay type: functional
Sequence of Galanin receptor type 3 (O60755 whole entry): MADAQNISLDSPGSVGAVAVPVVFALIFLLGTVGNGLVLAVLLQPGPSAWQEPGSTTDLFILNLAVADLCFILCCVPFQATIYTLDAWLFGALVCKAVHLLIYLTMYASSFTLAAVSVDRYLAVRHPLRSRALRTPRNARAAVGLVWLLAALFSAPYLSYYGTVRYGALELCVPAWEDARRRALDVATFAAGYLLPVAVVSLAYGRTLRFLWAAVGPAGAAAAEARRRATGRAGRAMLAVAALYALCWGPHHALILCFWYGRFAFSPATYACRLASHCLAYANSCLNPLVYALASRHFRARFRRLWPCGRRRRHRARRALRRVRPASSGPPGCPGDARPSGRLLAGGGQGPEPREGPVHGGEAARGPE

[14] = cells; assay type: functional, cell-based; conditions: HEK-CNG
[15] = blockers of HIV-1 ZM109 envelope-driven cell-cell fusion – HeLa effector, CEM target cells, luciferase, cherry-pick, dose response (AID 652058); assay type: functional, cell-based;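 also: luciferase signal from HIV-1 Env mediated cell-cell fusion of effector and target cells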
[16] = HIV-1 AD8 envelope cell-cell fusion blockers – cherry-pick, dose response (AID 652062); assay type: functional, cell-based;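 also: luciferase signal from cell-cell fusion driven by HIV-1 clade B AD8 Env; potency is for inhibitors of fusion seen as a drop in luminescence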
[17] = target: COUP transcription factor 2 (Homo sapiens, UniProt P24468); assay: Luminescence-based cell-based high throughput dose response assay to identify inhibitors of COUP-TFII (NR2F2).; assay type: functional;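 also: HEK293 cells transiently cotransfected with COUP-TFII expression vector and reporter; luciferase reporter luminescence driven by COUP-TFII from the pX2-168 reporter plasmid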
Sequence of COUP transcription factor 2 (P24468 whole entry): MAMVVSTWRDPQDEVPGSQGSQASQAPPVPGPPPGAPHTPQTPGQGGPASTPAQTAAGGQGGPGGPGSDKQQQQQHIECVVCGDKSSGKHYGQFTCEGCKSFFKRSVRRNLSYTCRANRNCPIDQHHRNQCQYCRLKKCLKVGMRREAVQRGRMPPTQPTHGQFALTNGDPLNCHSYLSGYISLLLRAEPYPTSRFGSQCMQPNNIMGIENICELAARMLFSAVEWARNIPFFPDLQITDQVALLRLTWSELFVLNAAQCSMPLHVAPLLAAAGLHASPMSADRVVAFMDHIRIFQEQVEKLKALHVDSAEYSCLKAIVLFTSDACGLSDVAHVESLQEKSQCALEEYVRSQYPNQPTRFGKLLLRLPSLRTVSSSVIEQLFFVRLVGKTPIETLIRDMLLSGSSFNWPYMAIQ

[18] = target: Cytochrome P450 3A4 (Homo sapiens, UniProt P08684);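 also: CYP3A4 tested as one member of a cytochrome P450 panel screen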
Sequence of Cytochrome P450 3A4 (P08684 whole entry): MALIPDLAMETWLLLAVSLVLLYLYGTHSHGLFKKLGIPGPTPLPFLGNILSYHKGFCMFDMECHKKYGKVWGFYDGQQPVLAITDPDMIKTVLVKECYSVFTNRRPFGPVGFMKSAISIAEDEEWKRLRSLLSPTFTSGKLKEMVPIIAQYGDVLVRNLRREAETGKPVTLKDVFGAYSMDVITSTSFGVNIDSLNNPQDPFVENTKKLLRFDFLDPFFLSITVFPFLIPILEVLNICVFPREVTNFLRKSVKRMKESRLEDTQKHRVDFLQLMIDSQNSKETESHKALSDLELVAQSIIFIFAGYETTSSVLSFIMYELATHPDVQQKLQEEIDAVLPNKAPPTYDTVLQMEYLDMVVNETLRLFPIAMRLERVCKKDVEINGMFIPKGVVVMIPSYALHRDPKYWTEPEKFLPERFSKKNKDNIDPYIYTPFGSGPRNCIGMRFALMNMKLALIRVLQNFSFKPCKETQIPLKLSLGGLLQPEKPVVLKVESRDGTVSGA

[19] = target: NAD-dependent protein deacylase sirtuin-5, mitochondrial (Homo sapiens, UniProt Q9NXA8); assay: sirtuin-5 deacylation blockers, concentration series – biochemical, fluorescence imaging, cherry-pick, set 5, dose response (AID 720591);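 also: desuccinylation of succinyl peptide AMC substrate read as fluorescence after trypsin release; potency of inhibitors that lower fluorescence and may act on trypsin instead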
Sequence of NAD-dependent protein deacylase sirtuin-5, mitochondrial (Q9NXA8 whole entry): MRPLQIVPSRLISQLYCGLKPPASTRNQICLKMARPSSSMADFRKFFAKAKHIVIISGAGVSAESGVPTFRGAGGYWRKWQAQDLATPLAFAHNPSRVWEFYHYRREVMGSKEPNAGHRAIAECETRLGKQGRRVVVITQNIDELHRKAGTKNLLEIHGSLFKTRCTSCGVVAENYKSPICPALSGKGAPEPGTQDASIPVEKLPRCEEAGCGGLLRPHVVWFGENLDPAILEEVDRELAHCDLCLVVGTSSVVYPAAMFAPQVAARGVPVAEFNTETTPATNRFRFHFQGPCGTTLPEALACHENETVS

[20] = cells
[21] = target: Bcl-2-like protein 10 (Homo sapiens, UniProt Q9HD36); assay: Bcl-B/TR3 peptide binding disruption – biochemical, fluorescence polarization, FITC-TR3 peptide, selectivity assay for Bfl-1 inhibitor project, primary screen (AID 748);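 also: fluorescence polarization from a fluorescein-labelled TR3 peptide binding purified Bcl-B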
Sequence of Bcl-2-like protein 10 (Q9HD36 whole entry): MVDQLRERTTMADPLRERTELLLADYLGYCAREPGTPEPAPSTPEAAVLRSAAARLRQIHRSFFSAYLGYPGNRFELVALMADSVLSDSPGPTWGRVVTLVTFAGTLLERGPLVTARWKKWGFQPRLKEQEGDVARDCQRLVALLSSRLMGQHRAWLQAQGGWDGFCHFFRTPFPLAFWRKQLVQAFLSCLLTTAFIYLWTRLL

[22] = IC50 of Artemis nuclease activity blockers – biochemical, fluorescence intensity, dose response (AID 720701); assay type: functional;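 also: Artemis endonuclease enzyme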
[23] = system: HeLa; assay: ATP-based viability loss in HeLa cells – cell-based, CellTiter-Glo luminescence, cherry-pick samples, cytotoxicity control for MITF activator project, dose response (AID 540259); assay type: functional; conditions: Homo sapiens
[24] = viability loss in HepG2 liver cells – cell-based, ATP luminescence, cherry-pick, set 6, cytotoxicity control, dose response (AID 1053125); assay type: functional
[25] = cells; conditions: HEK293
[26] = viability loss in HepG2 hepatoma cells – cell-based, ATP luminescence, cherry-pick, activator set 2, cytotoxicity control, dose response (AID 1053143); assay type: functional
[27] = decrease of insulin promoter-GFP reporter – imaging, high-content screening, mouse beta cells (AID 1628); assay type: functional; conditions: MIN6
[28] = Luminescence Cell-Based Dose Response HTS to Identify Activators of Luciferase Translation or Activity in H4 […] Cells. [Related pubchem assays: 1829 (Project Summary), 1814 (Primary HTS)]; assay type: functional
[29] = MIN6 cell viability loss – mouse insulinoma, cytotoxicity control, dose response (AID 2122); assay type: functional;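 also: confirmatory high-throughput counterscreen run to flag cytotoxic compounds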
[30] = system: H4; assay: Luminescence Cell-Based Dose Response HTS to Identify Activators of 5'UTR Stem-Loop Driven Prion Protein mRNA Translation in H4 Neuroglioblastoma Cells. [Related pubchem assays: 1829 (Project Summary), 1814 (Primary HTS)]; assay type: functional; conditions: Homo sapiens
[31] = target: Protein Wnt-3a (Mus musculus, UniProt P27467); assay: antagonism of Wnt3a pathway luciferase reporter – Wnt-LIGHT cells, luminescence, selectivity assay for Gli-SUFU antagonist project, dose response (AID 651570); assay type: functional; conditions: read-out: IC50_Mean;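 also: Wnt-LIGHT reporter cells stimulated with conditioned medium from Wnt3a-producing cells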
Sequence of Protein Wnt-3a (P27467 whole entry): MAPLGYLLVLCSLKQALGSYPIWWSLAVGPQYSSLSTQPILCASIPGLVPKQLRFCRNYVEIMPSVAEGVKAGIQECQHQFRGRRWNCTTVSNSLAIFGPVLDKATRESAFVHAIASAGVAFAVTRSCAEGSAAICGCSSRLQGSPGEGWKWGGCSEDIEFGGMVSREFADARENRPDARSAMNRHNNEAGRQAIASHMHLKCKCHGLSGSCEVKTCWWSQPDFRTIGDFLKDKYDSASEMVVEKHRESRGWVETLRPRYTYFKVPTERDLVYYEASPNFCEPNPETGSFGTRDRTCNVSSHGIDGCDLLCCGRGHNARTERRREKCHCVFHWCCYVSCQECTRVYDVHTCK

[32] = ATP-based viability loss in HEK293T cells – cell-based, CellTiter-Glo luminescence, cherry-picked samples, set 4, cytotoxicity control, dose response (AID 743441); assay type: functional; conditions: HEK293

With `O=S(=O)(NCC(Nc1ccc(Cl)cc1)c1ccccc1)c1ccccc1` (configuration not stated) the IC50 [1] was 11.4 µM (inactive) and the IC50 [2] was > 69.5 µM (inactive).
For `CC(=O)c1ccc(N2CCN(C(=O)CCCn3c(=O)[nH]c4ccc(Br)cc4c3=O)CC2)cc1`, the IC50 [3] was 1.48 µM (active), the IC50 [4] was 53.2 µM (inactive) and the IC50 [5] was 0.579 µM (active). The IC50 [6] was 25.9 µM (inactive).
In the case of `Cc1ccc(SCCN2CCC(C)CCC2=O)cc1` (configuration not stated), the EC50 [7] is reported as > 67.5 µM (inactive).
With `Cc1cc(N2CCN(c3nc4ccccc4s3)CC2)n2ncnc2n1` the IC50 [8] was > 80 µM (inactive), the IC50 [9] was > 80 µM (inactive) and the AC50 [10] was 14.1 µM (inconclusive). For the same compound, the AC50 [11] was 5.06 µM (active), the AC50 [12] was 4.63 µM (active) and the IC50 [13] was 1.43 µM (active). The EC50 [14] was > 29.9 µM (inactive), the AC50 [15] was 6.41 µM (active) and the AC50 [16] was 5.3 µM (active). For the same compound, the IC50 [17] was 6.41 µM (active) and the AC50 [18] was 39.8 µM (inconclusive).
In the case of `COc1ccc(-c2csc3ncnc(O)c23)cc1`, the AC50 [19] is reported as 15.6 µM (active).
In the case of `Cc1cccn2c(=O)c(/C=C(\C#N)C(N)=O)c(Oc3ccccc3)nc12`, the AC50 [20] is reported as 8.22 µM (active).
For `Cc1cc(-c2csc(N)n2)c(C)n1C`, the IC50 [21] was 26 µM (active) and the IC50 [22] was > 20 µM (inactive).
With `Nc1ccc(C#Cc2ccc3c(=O)c4ccccc4oc3c2)cc1` the AC50 [23] was 59.6 µM (active), the AC50 [24] was > 52 µM (inactive) and the AC50 [25] was > 52 µM (inactive).
In the case of `CC(=O)Nc1cc2nn(-c3ccccc3)nc2cc1Cl`, the AC50 [26] is reported as 4.99 µM (active).
In the case of `COc1ccc(Cn2c(-c3ccc(Cl)cc3)c[n+]3ccccc23)cc1`, the IC50 [27] is reported as 1.35 µM (active), the EC50 [28] is reported as > 120 µM (not active) and the IC50 [29] is reported as 1.02 µM (active). The EC50 [30] was > 120 µM (not active), the IC50 [31] was 36.9 µM (inactive) and the AC50 [32] was 39.3 µM (active).
